In patent publication US12077501B2, “Compounds and compositions for intracellular delivery of agents” (ModernaTX, Inc., priority 2017, dated 2024):

Key:
[1] = Lipid clearance: % dose remaining in liver of CD-1 mice; type: in vivo; details: intravenous, 0.5 mg/kg, CD-1 mouse, Table 8a
Summary of the method: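 Nanoparticle compositions containing the test compound were dosed to CD-1 mice at 0.5 mpk, and hEPO expression was measured. Clearance data were collected from the same compositions.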

[2] = tested on: hEPO expression; experiment: hEPO expression in CD-1 mice compared with MC3; type: in vivo; details: intravenous, 0.5 mpk, Table 7e
Description: In contrast, hEPO expression in rats induced by administration of a nanoparticle composition including a compound according to one of formulae (I), (Ia1)-(Ia6), (Ib), (II), (IIa), (III), and (IIIa) was substantially […] than that measured for MC3. […] Tables 7c and 7d show additional protein expressions and clearance data from compositions with various compounds disclosed herein as compared to with MC3. Tables 7e, 7f and 7g show hEPO expression data in CD-1 mice at a dose of 0.5 mpk.

[3] = pKa of nanoparticle compositions; type: physicochemical; details: Table 1c
[4] = Encapsulation efficiency of RNA (QUANT-IT RIBOGREEN RNA assay); type: physicochemical; details: Table 1c; nanoparticle compositions
Summary of the method: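 Samples diluted to about 5 μg/mL RNA in TE buffer pH 7.5, treated with buffer or 2% Triton X-100 for 15 min at 37° C, then stained with RiboGreen (1:100). Fluorescence at about 480/520 nm, blank-subtracted; free RNA fraction is intact over Triton-disrupted signal.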

[5] = Particle size and polydispersity index of nanoparticle compositions (Zetasizer Nano ZS); type: physicochemical; details: Table 1c; nanoparticle compositions
Description: A Zetasizer Nano ZS (Malvem Instruments Ltd, Malvem, Worcestershire, UK) can be used to determine the particle size, the polydispersity index (PDI) and the zeta potential of the nanoparticle compositions in 1×PBS in determining particle size and 15 mM PBS in determining zeta potential.

[6] = Lipid purity change after storage in EtOH for 96 h at 25 or 37 °C; type: physicochemical
Description: Nanoparticle compositions including a therapeutic and/or prophylactic agent can be optimized according to the selection of a compound according to one of formulae (I), (Ia1)-(Ia10), (Ib), (Ic), (Id), (Id1)-(Id10), (Ie), (Ie1)-(Ie6), (II), (IIa), (III), and (IIIa), the selection of additional lipids, the amount of each lipid in the lipid component, and the wt:wt ratio of the lipid component to the therapeutic and/or prophylactic agent, as described herein. Initial studies were performed to compare the delivery efficiency of nanoparticle compositions including various compounds according to one of formulae (I), (Ia1)-(Ia10), (Ib), (Ic), (Id), (Id1)-(Id10), (Ie), (Ie1)-(Ie6), (II), (IIa), (III), and (IIIa). The cationic lipid MC3 is a current standard in the art. Also determined was the stability of nanoparticles of the disclosure, i.e., the purity after storage in EtOH for 96h at 25° C. or 37° C. (Table Id).

Row | % Dose Remaining 24 hr [1] [%] | pKa [3] | EE (%) [4] [%] | PDI [5] | Size (nm) [5] [nm] | Lipid % change purity in EtOH, 25° C., 96 h [6] [%] | Lipid % change purity in EtOH, 37° C., 96 h [6] [%] | SMILES | AUC (p/s*h) CD-1 mice 0.5 mpk [2] [p/s*h]
1 | 0.54 | 7.27 | 95.0 | 0.16 | 75.0 | 0 | 4.1 | CCCCCCCCCN(CCCCCCCCC)CCN(CCCCCCCCC)CC(=O)N1CCN(C(=O)CN(CCCCCCCCC)CCCCCOC(=O)OC)CC1 [Compound 109, 5-((2-(4-(N-(2-(Dinonylamino)ethyl)-N-nonylglycyl)piperazin-1-yl)-2-oxoethyl)(nonyl)amino)pentyl methyl carbonate] | 5.56E+07
2 | 59.89 | 6.82 | 96.7 | 0.21 | 86.8 | 6.3 | 6.5 | CCCCCCCCCN(CCCCCCCCC)CCN(CCCCCCCCC)CC(=O)N1CCN(C(=O)C(C)N(CCCCCCCCC)CCCC(=O)OCCCCC)CC1 (centres unmarked) [Compound 111, Pentyl 4-((1-(4-(N-(2-(dinonylamino)ethyl)-N-nonylglycyl)piperazin-1-yl)-1-oxopropan-2-yl)(nonyl)amino)butanoate] | 1.75E+08
3 | 46.37 | 6.14 | 97.1 | 0.22 | 73.5 |  |  | CCCCCCCCCN(CCCCCCCCC)CC(=O)N1CCN(C(=O)CN(CCCCCCCCC)CCCCCCCCC)CC1 [Compound 112, 1,1′-(piperazine-1,4-diyl)bis(2-(dinonylamino)ethan-1-one)] | 1.78E+04
4 | 55.92 | 6.7 | 97.8 | 0.20 | 82.3 |  |  | CCCCCC/C=C\COC(=O)CCCN(CCCCCCCCCCCCCC)CC(=O)N1CCN(C(=O)CN(CCCCCCCCC)CCN(CCCCCCCCC)CCCCCCCCC)CC1 [Compound 118, (Z)-Non-2-en-1-yl 4-((2-(4-(N-(2-(dinonylamino)ethyl)-N-nonylglycyl)piperazin-1-yl)-2-oxoethyl)(tetradecyl)amino)butanoate] | 1.64E+08
5 | 3.75 | 6.51 |  |  |  |  |  | CCCCCCCCCCCCCCN(CCCCCCCCCCCC(=O)OC)CCC1CCCN(C(=O)CN(CCCCCCCCC)CCN(CCCCCCCCC)CCCCCCCCC)C1 (centres unmarked) [Compound 123, Methyl 12-((2-(1-(N-(2-(dinonylamino)ethyl)-N-nonylglycyl)piperidin-3-yl)ethyl)(tetradecyl)amino)dodecanoate] | 5.84E+07
6 | 2.74 | 6.89 |  |  |  |  |  | CCCCCCCCCCCCCCN(CCCCCC(=O)OCCCCCCC)CCC1CCN(C(=O)CN(CCCCCCCCC)CCN(CCCCCCCCC)CCCCCCCCC)C1 (centres unmarked) [Compound 125, Heptyl 6-((2-(1-(N-(2-(dinonylamino)ethyl)-N-nonylglycyl)pyrrolidin-3-yl)ethyl)(tetradecyl)amino)hexanoate] | 7.89E+06
7 | 57.89 | 5.10 |  |  |  |  |  | CCCCCCCCCN(CCCCCCCCC)CCN(CCCCCCCCC)CC(=O)OCCOC(=O)CN(CCCCCCCCC)CCCCCCCCC [Compound 150, 2-((N-(2-(Dinonylamino)ethyl)-N-nonylglycyl)oxy)ethyl dinonylglycinate] | 2.29E+05

Further lines, the molecule ahead of its results:

Row | SMILES | % Dose Remaining 24 hr [1] [%] | pKa [3] | EE (%) [4] [%] | PDI [5] | Size (nm) [5] [nm] | Lipid % change purity in EtOH, 25° C., 96 h [6] [%] | Lipid % change purity in EtOH, 37° C., 96 h [6] [%] | AUC (p/s*h) CD-1 mice 0.5 mpk [2] [p/s*h]
8 | CCCCCCCCCCCCCCN(CCCOC(=O)CCCCCCCCC)CC(=O)N1CCN(C(=O)CN(CCCCCCCCC)CCN(CCCCCCCCC)CCCCCCCCC)CC1 [Compound 89, 3-((2-(4-(N-(2-(Dinonylamino)ethyl)-N-nonylglycyl)piperazin-1-yl)-2-oxoethyl)(tetradecyl)amino)propyl decanoate] | 0.05 | 6.94 | 97.6 | 0.20 | 80.1 | 2.3 | 3.9 | 1.36E+08
9 | CCCCCCCCCCCCCCN(CCCCCCCC(=O)OCCCCC)CC(=O)N1CCN(C(=O)CN(CCCCCCCCC)CCN(CCCCCCCCC)CCCCCCCCC)CC1 [Compound 90, Pentyl 8-((2-(4-(N-(2-(dinonylamino)ethyl)-N-nonylglycyl)piperazin-1-yl)-2-oxoethyl)(tetradecyl)amino)octanoate] | 3.93 | 6.83 | 98.4 | 0.19 | 81.5 | 0.1 | 9.6 | 2.08E+07
10 | CCCCCCCCCCCCCCN(CCCCCC(=O)OCCCCCCC)CC(=O)N1CCN(C(=O)CN(CCCCCCCCC)CCN(CCCCCCCCC)CCCCCCCCC)CC1 [Compound 91, Heptyl 6-((2-(4-(N-(2-(dinonylamino)ethyl)-N-nonylglycyl)piperazin-1-yl)-2-oxoethyl)(tetradecyl)amino)hexanoate] | 9.19 | 6.74 | 97.6 | 0.21 | 82.9 | 1 | 2.3 | 3.22E+07
11 | CCCCCCCCCCCCCCN(CCCOC(=O)CCCCCCCCC)CCC1CCN(C(=O)CN(CCCCCCCCC)CCN(CCCCCCCCC)CCCCCCCCC)CC1 [Compound 92, 3-((2-(1-(N-(2-(Dinonylamino)ethyl)-N-nonylglycyl)piperidin-4-yl)ethyl)(tetradecyl)amino)propyl decanoate] | 0.10 | 6.53 | 97.1 | 0.17 | 73.8 | 4.5 | 9 | 8.25E+07
12 | CCCCCCCCCCCCCCN(CCCCCCCC(=O)OCCCCC)CCC1CCN(C(=O)CN(CCCCCCCCC)CCN(CCCCCCCCC)CCCCCCCCC)CC1 [Compound 93, Pentyl 8-((2-(1-(N-(2-(dinonylamino)ethyl)-N-nonylglycyl)piperidin-4-yl)ethyl)(tetradecyl)amino)octanoate] | 10.37 | 6.6 | 97.7 | 0.17 | 75.6 | 0 | 2.2 | 8.63E+07
13 | CCCCCCCCCCCCCCN(CCCCCC(=O)OCCCCCCC)CCC1CCN(C(=O)CN(CCCCCCCCC)CCN(CCCCCCCCC)CCCCCCCCC)CC1 [Compound 94, Heptyl 6-((2-(1-(N-(2-(dinonylamino)ethyl)-N-nonylglycyl)piperidin-4-yl)ethyl)(tetradecyl)amino)hexanoate] | 18.52 | 6.65 | 98.4 | 0.20 | 74.6 | 5.9 | 8.3 | 2.39E+07
14 | CCCCCCCCCN(CCCCCCCCC)CCN(CCCCCCCCC)CC(=O)N1CCC(CCOC(=O)CN(CCCCCCCCC)CCCCCCCCC)C1 (centres unmarked) [Compound 103, 2-(1-(N-(2-(Dinonylamino)ethyl)-N-nonylglycyl)pyrrolidin-3-yl)ethyl Dinonylglycinate] | 71.45 | 7.25 | 99.0 | 0.17 | 76.9 | 1.5 | 5.7 | 1.82E+08
15 | CC/C=C\COC(=O)CCCN(CCCCCCCCC)CC(=O)N1CCN(C(=O)CN(CCCCCCCCC)CCN(CCCCCCCCC)CCCCCCCCC)CC1 [Compound 107, (Z)-Pent-2-en-1-yl 4-((2-(4-(N-(2-(dinonylamino)ethyl)-N-nonylglycyl)piperazin-1-yl)-2-oxoethyl)(nonyl)amino)butanoate] | 38.15 | 6.99 | 96.6 | 0.19 | 80.6 | 4 | 3.6 | 1.76E+08
